Measurements from US5405861A, “Triazole compounds and antifungal compositions thereof” (Takeda Chemical Industries, Co., Ltd., priority 1989, dated 1995).
Counter-ions that a name gives are not always drawn. Like-named read-outs stand apart in the source and are kept apart here.

Assays:
[1] = system: Candida albicans (IFO 0538); experiment: Antifungal activity against Candida albicans, paper disc growth inhibition zone (Tables 5 and 6); format: cell-based; conditions: 28° C., 2 days incubation; for zone of inhibition at 1000 µg/mL: 48 h, read-out: Inhibition zone diameter
Method: The antifungal activities of the compounds (I) were evaluated by the following method: a sheet of filter paper disc (manufactured by Toyo Seisakusho, 8 mm in diameter) soaked in a 1000 μg/ml solution of a compound (I) in methanol was placed on an agar plate, which was incubated at 28° C. for 2 days, and the diameter of the growth inhibition zone around the filter paper disc was measured. The following culture media were used:
A: yeast nitrogen base agar medium
B: yeast nitrogen base agar medium (pH 7.0)

Candida albicans = experiment: Infection-preventing effect in experimental infection in mice, Method 1 (Table 7-1); format: in vivo, Crj:CDF1 mice; conditions: Candida albicans, 168 h, given 0 and 2 hours after infection, survival 7 days after infection, total dose, read-out: ED50
Method: Method 1 (Table 7-1): To 5-week-old Crj:CDF1 mice the minimum lethal dose of Candida albicans was inoculated intravenously. The test drug was given twice 0 and 2 hours after infection. The effectiveness of the drug was expressed in ED50 values calculated by the Reed and Muench method from the survival rate 7 days after infection. The ED50 values were calculated based on the total dose given on the two occasions.

[2] = pH 7, B medium (yeast nitrogen base agar, pH 7.0)
[3] = A medium (yeast nitrogen base agar)

SMILES	zone of inhibition at 1000 µg/mL [1, 2]	ED50 (Candida albicans; sc, s.c.)	other results
C[C@@H](SCc1cncn1C)[C@](O)(Cn1cncn1)c1ccc(F)cc1F (racemic) [Compound 29, (2RS,3RS)-2-(2,4-difluorophenyl)-3-(1-methylimidazol-5-yl)methylthio-1-(1H-1,2,4-triazol-1-yl)-2-butanol]	38 mm	0.71 mg/kg	–
C[C@@H](S)[C@](O)(Cn1cncn1)c1ccc(F)cc1F (racemic) [Compound 39, (2RS,3RS)-2-(2,4-difluorophenyl)-3-mercapto-1-(1H-1,2,4-triazol-1-yl)-2-butanol]	18 mm	0.19 mg/kg	ED50 (Candida albicans; po, p.o.): 0.35 mg/kg
C[C@@H](SCCc1nccn1C)[C@](O)(Cn1cncn1)c1ccc(F)cc1F (racemic) [Compound 50, (2RS,3RS)-2-(2,4-difluorophenyl)-3-[2-(1-methylimidazol-2-yl)ethyl]thio-1-(1H-1,2,4-triazol-1-yl)-2-butanol]	22 mm	3.2 mg/kg	–
Cc1oc(=O)oc1CS[C@H](C)[C@](O)(Cn1cncn1)c1ccc(F)cc1F (racemic) [Compound 56, (2RS,3RS)-2-(2,4-difluorophenyl)-3-(5-methyl-2-oxo-1,3-dioxol-4-yl)methylthio-1-(1H-1,2,4-triazol-1-yl)-2-butanol]	30 mm	2 mg/kg	–
C[C@H](S)[C@](O)(Cn1cncn1)c1ccc(F)cc1F (racemic) [Compound 60, (2RS,3SR)-2-(2,4-difluorophenyl)-3-mercapto-1-(1H-1,2,4-triazol-1-yl)-2-butanol]	30 mm	> 4 mg/kg	–
C[C@@H](SCCn1cncn1)[C@](O)(Cn1cncn1)c1ccc(F)cc1F (relative stereo) [13(hydrochloride)]	25 mm	10 mg/kg	–
C[C@@H](SCc1nccn1C)[C@](O)(Cn1cncn1)c1ccc(F)cc1F (relative stereo) [16(hydrochloride)]	–	–	ED50 (Candida albicans; po, p.o.): 0.71 mg/kg
C[C@@H](SCc1cn2ccccc2n1)[C@](O)(Cn1cncn1)c1ccc(F)cc1F (relative stereo) [27(hydrochloride)]	–	3.2 mg/kg	–
C[C@@H](SCc1nccn1CC(F)(F)C(F)F)[C@](O)(Cn1cncn1)c1ccc(F)cc1F (relative stereo) [30(hydrochloride)]	–	0.88 mg/kg	–
C[C@@H](SCc1nccs1)[C@](O)(Cn1cncn1)c1ccc(F)cc1F (relative stereo) [38(hydrochloride)]	–	3.2 mg/kg	–
C[C@@H](SCCn1cncn1)[C@](O)(Cn1cncn1)c1ccc(F)cc1F (relative stereo) [Compound 13]	–	–	zone of inhibition at 1000 µg/mL [1, 3]: 34 mm
C[C@H]([C@](O)(Cn1cncn1)c1ccc(F)cc1F)S(=O)(=O)CCn1cncn1 (relative stereo) [Compound 14]	–	–	zone of inhibition at 1000 µg/mL [1, 3]: 22 mm
C[C@@H](SCc1nccn1C)[C@](O)(Cn1cncn1)c1ccc(F)cc1F (relative stereo) [Compound 16]	25 mm	0.63 mg/kg	–
C[C@@H](SCCSCCn1cncn1)[C@](O)(Cn1cncn1)c1ccc(F)cc1F (relative stereo) [Compound 22]	25 mm	–	–
C[C@@H](SCCSCCn1ccnc1)[C@](O)(Cn1cncn1)c1ccc(F)cc1F (relative stereo) [Compound 23]	25 mm	–	–
C[C@@H](SCc1nc2c(s1)CCC2)[C@](O)(Cn1cncn1)c1ccc(F)cc1F (relative stereo) [Compound 25]	40 mm	3.2 mg/kg	–
Cc1nnc(S[C@H](C)[C@](O)(Cn2cncn2)c2ccc(F)cc2F)s1 (relative stereo) [Compound 26]	45 mm	3.2 mg/kg	–
C[C@@H](SCc1cn2ccccc2n1)[C@](O)(Cn1cncn1)c1ccc(F)cc1F (relative stereo) [Compound 27]	45 mm	–	–
C[C@@H](SCc1cn(C)cn1)[C@](O)(Cn1cncn1)c1ccc(F)cc1F (relative stereo) [Compound 28]	40 mm	0.65 mg/kg	–
C[C@@H](SCc1nccn1CC(F)(F)C(F)F)[C@](O)(Cn1cncn1)c1ccc(F)cc1F (relative stereo) [Compound 30]	40 mm	–	–
C[C@@H](SCc1ncnn1C)[C@](O)(Cn1cncn1)c1ccc(F)cc1F (relative stereo) [Compound 31]	40 mm	0.71 mg/kg	–
C[C@@H](SCc1ncn(C)n1)[C@](O)(Cn1cncn1)c1ccc(F)cc1F (relative stereo) [Compound 32]	40 mm	3.2 mg/kg	–
C[C@@H](SCc1nncn1C)[C@](O)(Cn1cncn1)c1ccc(F)cc1F (relative stereo) [Compound 33]	20 mm	0.45 mg/kg	–
CSc1nnc(CS[C@H](C)[C@](O)(Cn2cncn2)c2ccc(F)cc2F)n1C (relative stereo) [Compound 34]	30 mm	3.2 mg/kg	–
C[C@@H](SCc1ncc2n1CCC2)[C@](O)(Cn1cncn1)c1ccc(F)cc1F (relative stereo) [Compound 35]	33 mm	0.71 mg/kg	–
Cc1nc(CS[C@H](C)[C@](O)(Cn2cncn2)c2ccc(F)cc2F)sc1C (relative stereo) [Compound 36]	45 mm	3.2 mg/kg	–

SMILES	zone of inhibition at 1000 µg/mL [1, 2]	ED50 (Candida albicans; sc, s.c.)	other results
Cc1csc(CS[C@H](C)[C@](O)(Cn2cncn2)c2ccc(F)cc2F)n1 (relative stereo) [Compound 37]	45 mm	1.4 mg/kg	–
C[C@@H](SCc1nccs1)[C@](O)(Cn1cncn1)c1ccc(F)cc1F (relative stereo) [Compound 38]	47 mm	–	–
CC(=O)S[C@H](C)[C@](O)(Cn1cncn1)c1ccc(F)cc1F (relative stereo) [Compound 40]	50 mm	0.35 mg/kg	–
CCn1ccnc1CS[C@H](C)[C@](O)(Cn1cncn1)c1ccc(F)cc1F (relative stereo) [Compound 46]	27 mm	0.7 mg/kg	–
CC(C)n1ccnc1CS[C@H](C)[C@](O)(Cn1cncn1)c1ccc(F)cc1F (relative stereo) [Compound 47]	25 mm	0.7 mg/kg	–
C[C@@H](SCc1nccn1CCF)[C@](O)(Cn1cncn1)c1ccc(F)cc1F (relative stereo) [Compound 48]	23 mm	0.77 mg/kg	–
C[C@@H](SCc1nccn1CC(F)(F)F)[C@](O)(Cn1cncn1)c1ccc(F)cc1F (relative stereo) [Compound 49]	25 mm	1 mg/kg	–
C[C@@H](SCc1nccn1CC1CC1)[C@](O)(Cn1cncn1)c1ccc(F)cc1F (relative stereo) [Compound 51]	28 mm	2 mg/kg	–
Cc1nc(CS[C@H](C)[C@](O)(Cn2cncn2)c2ccc(F)cc2F)cs1 (relative stereo) [Compound 52]	35 mm	2 mg/kg	–
Cc1ncc(CS[C@H](C)[C@](O)(Cn2cncn2)c2ccc(F)cc2F)s1 (relative stereo) [Compound 53]	35 mm	2 mg/kg	–
C[C@@H](SCc1nccn1CC(F)F)[C@](O)(Cn1cncn1)c1ccc(F)cc1F (relative stereo) [Compound 54]	25 mm	0.5 mg/kg	–
C[C@@H](SCc1nccn1C1CC1)[C@](O)(Cn1cncn1)c1ccc(F)cc1F (relative stereo) [Compound 55]	30 mm	0.5 mg/kg	–
CC(=O)S[C@@H](C)[C@](O)(Cn1cncn1)c1ccc(F)cc1F (relative stereo) [Compound 61]	30 mm	–	–
OC(CSCCSCCn1ccnc1)(Cn1cncn1)c1ccc(F)cc1F (centres unmarked) [Compound 7]	–	–	zone of inhibition at 1000 µg/mL [1, 3]: 18 mm
OC(CSCCc1ccncc1)(Cn1cncn1)c1ccc(F)cc1F (centres unmarked) [Compound 8]	–	–	zone of inhibition at 1000 µg/mL [1, 3]: 25 mm
CC(SCC(O)(Cn1cncn1)c1ccc(F)cc1F)c1ccncc1 (centres unmarked) [Compound 9]	–	–	zone of inhibition at 1000 µg/mL [1, 3]: 21 mm
CC(SCC(O)(Cn1cncn1)c1ccc(F)cc1F)c1ccncc1 (centres unmarked) [Compound 11]	–	–	Inhibition zone diameter [1, 3]: 24 mm
Cn1ccnc1CSCCSCC(O)(Cn1cncn1)c1ccc(F)cc1F (centres unmarked) [Compound 17]	25 mm	–	–
Cn1ccnc1SCCSCC(O)(Cn1cncn1)c1ccc(F)cc1F (centres unmarked) [Compound 18]	25 mm	–	–
OC(CSCCSCc1ccncc1)(Cn1cncn1)c1ccc(F)cc1F (centres unmarked) [Compound 19]	30 mm	–	–
Cn1nnnc1SCCSCC(O)(Cn1cncn1)c1ccc(F)cc1F (centres unmarked) [Compound 20]	25 mm	–	–
OC(CSCCSCCn1cncn1)(Cn1cncn1)c1ccc(F)cc1F (centres unmarked) [Compound 21]	20 mm	–	–
OC(CSCCSc1ccncc1)(Cn1cncn1)c1ccc(F)cc1F (centres unmarked) [Compound 24]	25 mm	–	–
C[C@@H](SCc1nncn1C)[C@](O)(Cn1cncn1)c1ccc(F)cc1F [Compound 95]	28 mm	–	–
CCn1ccnc1CS[C@H](C)[C@](O)(Cn1cncn1)c1ccc(F)cc1F [Compound 101]	38 mm	–	–
CC(C)n1ccnc1CS[C@H](C)[C@](O)(Cn1cncn1)c1ccc(F)cc1F [Compound 102]	35 mm	–	–
